Source: a compilation of properties of binary mixtures (doi:10.1007/s10953-013-9991-z)

Assay: xn = mol fraction of the nth substance listed
Details: 101 kPa

CN(C)C=O + CC[n+]1ccn(C)c1.F[B-](F)(F)F
x1 = 1
Details | speed of sound [m/s]
293.15 K | 1477.8
303.15 K | 1440.3
308.15 K | 1421

CNC=O + CC[n+]1ccn(C)c1.F[B-](F)(F)F
speed of sound [m/s]
Details | 293.15 K | 298.15 K | 303.15 K | 308.15 K
x1 = 0.0661 | 1633.3 | – | – | –
x1 = 0.0886 | 1633.3 | 1622.4 | 1611.3 | 1600.3
x1 = 0.1287 | 1633 | 1622.1 | 1610.8 | –
x1 = 0.1757 | 1631.7 | 1619.5 | 1607.8 | 1596.1
x1 = 0.2258 | 1628 | 1615.8 | 1603.3 | 1590.7
x1 = 0.2783 | 1622.6 | 1609 | 1595.9 | 1583.5
x1 = 0.3287 | – | 1601.7 | – | –
x1 = 0.3729 | 1608.1 | 1593 | – | –
x1 = 0.4259 | 1597.9 | 1582.3 | 1567.3 | 1552.1
x1 = 0.4766 | 1585.5 | 1569.5 | 1554.2 | 1539.1
x1 = 0.5291 | 1572.2 | – | 1540.2 | 1524.6
x1 = 0.5749 | 1559.2 | 1543.2 | – | 1511.9
x1 = 0.6252 | 1543.5 | 1527.8 | 1513 | 1496.9
x1 = 0.6773 | – | 1511.9 | 1496.9 | 1480.7
x1 = 0.7281 | 1511.5 | – | 1482 | –
x1 = 0.7744 | 1496.7 | – | 1467.9 | 1452.1
x1 = 0.8271 | 1481.1 | – | 1453 | 1437
x1 = 0.8782 | 1467.7 | 1453.9 | – | –
x1 = 1 | – | 1431.9 | 1417.7 | –

CC[n+]1ccn(C)c1.F[B-](F)(F)F + CN(C)C=O
speed of sound [m/s]
Details | 293.15 K | 298.15 K | 303.15 K | 308.15 K
x2 = 0 | 1631 | 1619.4 | 1607.6 | –
x2 = 0.0903 | 1625.1 | 1611.5 | 1598 | 1586
x2 = 0.1257 | – | 1609.6 | 1596 | 1583.1
x2 = 0.1717 | 1622.4 | – | 1594 | –
x2 = 0.2275 | 1621.4 | 1606.7 | 1591.9 | 1577.6
x2 = 0.2781 | 1620.2 | – | 1590.4 | 1574.8
x2 = 0.3276 | 1618.1 | 1603.9 | 1589.2 | 1572.2
x2 = 0.3781 | 1615.6 | 1601 | 1586.1 | 1569.6
x2 = 0.4227 | 1612.9 | 1598.5 | 1583.6 | 1565.4
x2 = 0.4757 | 1607.8 | – | 1577.9 | 1560.5
x2 = 0.5258 | – | 1586.4 | 1571.3 | 1553.1
x2 = 0.5697 | 1593.8 | 1579.9 | – | –
x2 = 0.6261 | 1582.9 | 1568.1 | 1552.6 | 1534.5
x2 = 0.6758 | – | – | 1541.3 | 1523.2
x2 = 0.7291 | 1558.1 | – | 1526.5 | 1508.1
x2 = 0.769 | 1546.4 | – | 1513.9 | 1496.7
x2 = 0.8268 | 1529.4 | 1512.2 | 1495.4 | 1478
x2 = 0.8789 | – | 1495.6 | 1478.4 | 1460.1

CC[n+]1ccn(C)c1.F[B-](F)(F)F + CNC=O
x2 = 0
Details | speed of sound [m/s]
293.15 K | 1631
298.15 K | 1619.4
303.15 K | 1607.6
308.15 K | 1596.3
